This note sets out measurements from patent publication US9988430B2, “Stable GLP-1 based GLP-1/glucagon receptor co-agonists” (Novo Nordisk A/S, priority 2014, dated 2018).

*1 amine or outer side, *2 acyl side, *3 side chain or, on linkers, in order; H or OH if unused. Where a SMILES comes first, the peptide text is derived from it. Bridges are numbered along the chain shown (N, C = ends). Roman numbers before positions name the chains, in order. Side-chain parts run from the residue outwards. [ ]: non-standard residue; d: D form. The star is where a group is joined. C18 diacid = O=C(O)CCCCCCCCCCCCCCCCC(=O)*; γGlu = O=C(O)[C@H](CCC(=O)[*:2])N[*:1]; Desaminohistidyl = O=C(CCc1c[nH]cn1)*; Ac4c = NC1(C(=O)O)CCC1; AEEA = NCCOCCOCC(=O)O; Aib = CC(C)(N)C(=O)O

This experiment deals with T1, human GLP-1 receptor (Homo sapiens, UniProt P43220).
T1 construct: expressed in transfected cells; host or cells: membranes of BHK cells, parent line BHKTS13, clone FCW467-12A
T1 sequence (P43220 24-463): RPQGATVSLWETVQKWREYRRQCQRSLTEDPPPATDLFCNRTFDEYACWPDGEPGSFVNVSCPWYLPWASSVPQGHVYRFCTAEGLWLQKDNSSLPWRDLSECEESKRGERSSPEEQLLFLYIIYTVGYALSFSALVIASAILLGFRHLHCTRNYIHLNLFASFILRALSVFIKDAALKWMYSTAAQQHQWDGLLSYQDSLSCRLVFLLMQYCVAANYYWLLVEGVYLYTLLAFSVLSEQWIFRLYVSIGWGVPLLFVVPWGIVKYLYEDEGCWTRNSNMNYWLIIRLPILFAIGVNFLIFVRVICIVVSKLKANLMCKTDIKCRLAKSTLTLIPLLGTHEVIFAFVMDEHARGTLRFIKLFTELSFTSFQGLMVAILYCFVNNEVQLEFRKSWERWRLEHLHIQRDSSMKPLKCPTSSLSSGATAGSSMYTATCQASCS
Put plainly: Assay (II)(a): GLP-1 receptor binding, [125I]GLP-1 displacement, SPA on BHK membranes. As to conditions: displacement of [125I]GLP-1, membranes with human GLP-1 receptor; read-out: IC50 GLP-1R. As for the experimental part:
Assay (II): GLP-1 and Glucagon Receptor Binding The purpose of this assay is to test the in vitro receptor binding activity of the GLP-1 derivatives of the invention. (a) GLP-1 Receptor Binding The GLP-1 receptor (GLP-1R) binding is a measure of the affinity of a derivative for the human GLP-1 receptor. The GLP-1 receptor binding of each derivatives were determined with competitive binding, displacing [^125I]GLP-1 bound to GLP-1 receptors expressed in cell membranes associated with wheat germ agglutinin (WGA) scintillation proximity assay (SPA) beads. Each derivative was added in a series of concentrations to isolated membranes comprising the human GLP-1 receptor and displacement of the labelled radioligand was monitored. The receptor binding was reported as the concentration at which half of the labelled ligand is displaced from the receptor, the IC^50 value. The following chemicals were used in the assay: MEM w/o phenol red (Gibco 11880-028), Pen/strep (Invitrogen 15140-122), G418 (Invitrogen 10131-027), 1 M Hepes (Gibco 15630), EDTA (Invitrogen 15575-038), PBS (Invitrogen 14190-094), fetal calf serum (Invitrogen 16140-071), EGTA, MgCl2 (Merck 1.05832.1000), Tween 20 (Amresco 0850C335), SPA particles (wheat germ agglutinin (WGA) SPA beads, Perkin Elmer RPNQ0001), [125I]-GLP-1]-(7-36)NH2 (produced in-house), OptiPlate™-96 (Perkin Elmer). Buffer 1 consisted of 20 mM Na-HEPES plus 10 mM EDTA and pH was adjusted to 7.4. Buffer 2 consisted of 20 mM Na-HEPES plus 0.1 mM EDTA and pH was adjusted to 7.4. Assay buffer consisted of 50 mM HEPES supplemented with 5 mM EGTA, 5 mM MgCl2, 0.005% Tween 20 and pH was adjusted to 7.4. A 0.02% albumin stock consisted of HSA dissolved at 0.02% (w/v) in assay buffer. The cells used in this assay (clone FCW467-12A) were BHK cells with BHKTS13 as a parent cell line. The cells express the human GLP-1 receptor. The cells were grown at 5% CO2 in DMEM, 10% fetal calf serum, 1% Pen/Strep (Penicillin/Streptomycin) and 1.0 mg/ml of the selection marker G418. To make a membrane preparation the cells were grown to approximately 80% confluence. The cells were washed twice in phosphate-buffered saline and harvested. The cells were pelleted using a brief centrifugation and the cell pellet was kept on ice. The cell pellet was homogenised with ULTRA-THURRAX dispersing instrument for 20-30 seconds in a suitable amount of buffer 1 (e.g., 10 ml). The homogenate was centrifuged for 15 minutes. The pellet was re-suspended (homogenised) in 10 ml buffer 2 and centrifuged. This step was repeated once more. The resulting pellet was re-suspended in buffer 2 and the protein concentration was determined. The membranes were aliquoted and stored at minus 80° C. • 1. For the receptor binding assay 50 μl of the assay buffer was added to each well of an assay plate. • 2. Test compounds were serially diluted to give the following concentrations: 8×10EE-7 M, 8×10EE-8 M, 8×10EE-9 M, 8×10EE-10 M, 8×10EE-11 M, 8×10EE-12 M and 8×10EE-13 M. Twenty-five μl were added to appropriate wells in the assay plate. • 3. Cell membrane aliquots were thawed and diluted to their working concentration. Fifty μl were added to each well in the assay plate. • 4. WGA SPA beads were suspended in assay buffer at 20 mg/ml. The suspension was diluted to 10 mg/ml in assay buffer just prior to addition to the assay plate. Fifty μl were added to each well in the assay plate. • 5. The incubation was started by adding 25 μl of 480 pM solution of [125I]-GLP-1]-(7-36)NH2 to each well of the assay plate. A 25 μl aliquot was reserved for measuring total counts/well. • 6. The assay plate was incubated for 2 h at 30° C. • 7. The assay plate was centrifuged for 10 min. • 8. The assay plate was read in a Perkin Elmer TopCount NXT instrument. Calculations The data from the TopCount instrument were transferred to GraphPad Prism software. The software averaged the values for the replicates and performed a non-linear regression. IC50 values were calculated by the software and reported in nM. […]
Broadly, the IC50 is the midpoint of a concentration-inhibition curve. In the case of `CC[C@H](C)[C@H](NC(=O)[C@H](Cc1ccccc1)NC(=O)[C@H](CCC(=O)O)NC(=O)[C@H](CCCNC(=N)N)NC(=O)[C@H](C)NC(=O)[C@H](C)NC(=O)[C@H](CCCNC(=N)N)NC(=O)CNC(=O)[C@H](CCC(=O)O)NC(=O)[C@H](CC(C)C)NC(=O)[C@H](Cc1ccc(O)cc1)NC(=O)[C@H](CCCCN)NC(=O)[C@H](CO)NC(=O)[C@@H](NC(=O)[C@H](CC(=O)O)NC(=O)[C@H](CO)NC(=O)[C@@H](NC(=O)[C@H](Cc1ccccc1)NC(=O)[C@@H](NC(=O)CNC(=O)[C@H](Cc1c[nH]cn1)NC(=O)[C@H](C)NC(=O)CCc1c[nH]cn1)[C@@H](C)O)[C@@H](C)O)C(C)C)C(=O)N[C@@H](C)C(=O)N[C@@H](Cc1c[nH]c2ccccc12)C(=O)N[C@@H](CC(C)C)C(=O)N[C@@H](CC(C)C)C(=O)N[C@@H](CCCCNC(=O)COCCOCCNC(=O)COCCOCCNC(=O)CC[C@H](NC(=O)CC[C@H](NC(=O)CC[C@H](NC(=O)CCCCCCCCCCCCCCCCC(=O)O)C(=O)O)C(=O)O)C(=O)O)C(=O)NCC(=O)NCC(=O)NCC(=O)O` [Example 11, N^ε34-[2-[2-[2-[[2-[2-[2-[[(4S)-4-carboxy-4-[[(4S)-4-carboxy-4-[[(4S)-4-carboxy-4-(17-carboxyheptadecanoylamino)butanoyl]amino]butanoyl]amino]butanoyl]amino]ethoxy]ethoxy]acetyl]amino]ethoxy]ethoxy]acetyl]-[Imp7,His9,Lys18,Arg23,Arg26,Leu33,Gly36]-GLP-1-(7-37)-peptide] (Desaminohistidyl-AHGTFTSDVSKYLEGRAAREFIAWLLK([AEEA-AEEA-γGlu-γGlu-γGlu-C18 diacid])GGG-OH), the 50% inhibitory concentration (IC50) amounted to 0.9 nM.
In the case of `CC[C@H](C)[C@H](NC(=O)[C@H](Cc1ccccc1)NC(=O)[C@H](CCC(=O)O)NC(=O)[C@H](CCCNC(=N)N)NC(=O)[C@H](C)NC(=O)[C@H](C)NC(=O)[C@H](CCC(N)=O)NC(=O)[C@H](CCC(=O)O)NC(=O)[C@H](CCC(=O)O)NC(=O)[C@H](CC(C)C)NC(=O)[C@H](Cc1ccc(O)cc1)NC(=O)[C@H](CCCCN)NC(=O)[C@H](CO)NC(=O)[C@@H](NC(=O)[C@H](CC(=O)O)NC(=O)[C@H](CO)NC(=O)[C@@H](NC(=O)[C@H](Cc1ccccc1)NC(=O)[C@@H](NC(=O)CNC(=O)[C@H](Cc1c[nH]cn1)NC(=O)C(C)(C)NC(=O)CCc1c[nH]cn1)[C@@H](C)O)[C@@H](C)O)C(C)C)C(=O)N[C@@H](C)C(=O)N[C@@H](Cc1c[nH]c2ccccc12)C(=O)N[C@@H](CC(C)C)C(=O)N[C@H](C(=O)N[C@@H](CCCCNC(=O)COCCOCCNC(=O)COCCOCCNC(=O)CC[C@H](NC(=O)CC[C@H](NC(=O)CCCCCCCCCCCCCCCCC(=O)O)C(=O)O)C(=O)O)C(=O)N[C@H](C(N)=O)[C@@H](C)O)[C@@H](C)CC` [Example 42, N^ε34-[2-[2-[2-[[2-[2-[2-[[(4S)-4-carboxy-4-[[(4S)-4-carboxy-4-(17-carboxyheptadecanoylamino)butanoyl]amino]butanoyl]amino]ethoxy]ethoxy]acetyl]amino]ethoxy]ethoxy]acetyl]-[Imp7,Aib8, His9,Lys18,Glu22,Arg26,Ile33,Thr35]-GLP-1-(7-35)-peptide amide] (Desaminohistidyl-[Aib]HGTFTSDVSKYLEEQAAREFIAWLIK([AEEA-AEEA-γGlu-γGlu-C18 diacid])T-NH2) it was 0.2 nM; in that of `CC[C@H](C)[C@H](NC(=O)[C@H](Cc1ccccc1)NC(=O)[C@H](CCC(=O)O)NC(=O)[C@H](CCCNC(=N)N)NC(=O)[C@H](C)NC(=O)[C@H](C)NC(=O)[C@H](CCC(N)=O)NC(=O)[C@H](CCCCNC(=O)CC[C@H](NC(=O)CC[C@H](NC(=O)COCCOCCNC(=O)COCCOCCNC(=O)CC[C@H](NC(=O)CCCCCCCCCCCCCCCCC(=O)O)C(=O)O)C(=O)O)C(=O)O)NC(=O)[C@H](CCC(=O)O)NC(=O)[C@H](CC(C)C)NC(=O)[C@H](Cc1ccc(O)cc1)NC(=O)[C@H](CCCCN)NC(=O)[C@H](CO)NC(=O)[C@@H](NC(=O)[C@H](CC(=O)O)NC(=O)[C@H](CO)NC(=O)[C@@H](NC(=O)[C@H](Cc1ccccc1)NC(=O)[C@@H](NC(=O)CNC(=O)[C@H](Cc1c[nH]cn1)NC(=O)C1(NC(=O)CCc2c[nH]cn2)CCC1)[C@@H](C)O)[C@@H](C)O)C(C)C)C(=O)N[C@@H](C)C(=O)N[C@@H](Cc1c[nH]c2ccccc12)C(=O)N[C@@H](CC(C)C)C(=O)N[C@@H](CC(C)C)C(=O)N[C@@H](CCCCN)C(=O)N[C@H](C(N)=O)[C@@H](C)O` [Example 33, N^ε22-[(4S)-4-carboxy-4-[[(4S)-4-carboxy-4-[[2-[2-[2-[[2-[2-[2-[[(4S)-4-carboxy-4-(17-carboxyheptadecanoylamino)butanoyl]amino]ethoxy]ethoxy]acetyl]amino]ethoxy]ethoxy]acetyl]amino]butanoyl]amino]butanoyl]-[Imp7,Acb8,His9,Lys18,Lys22,Arg26,Leu33,Thr35]-GLP-1-(7-35)-peptide amide] (Desaminohistidyl-[Ac4c]HGTFTSDVSKYLEK([γGlu-γGlu-AEEA-AEEA-γGlu-C18 diacid])QAAREFIAWLLKT-NH2), 0.2 nM.
Regarding `CC[C@H](C)[C@H](NC(=O)[C@H](Cc1ccccc1)NC(=O)[C@H](CCC(=O)O)NC(=O)[C@H](CCCNC(=N)N)NC(=O)[C@H](C)NC(=O)[C@H](C)NC(=O)[C@H](CCC(N)=O)NC(=O)[C@H](CCC(=O)O)NC(=O)[C@H](CCC(=O)O)NC(=O)[C@H](CC(C)C)NC(=O)[C@H](Cc1ccc(O)cc1)NC(=O)[C@H](CCCCN)NC(=O)[C@H](CO)NC(=O)[C@@H](NC(=O)[C@H](CC(=O)O)NC(=O)[C@H](CO)NC(=O)[C@@H](NC(=O)[C@H](Cc1ccccc1)NC(=O)[C@@H](NC(=O)CNC(=O)[C@H](Cc1c[nH]cn1)NC(=O)C1(NC(=O)CCc2c[nH]cn2)CCC1)[C@@H](C)O)[C@@H](C)O)C(C)C)C(=O)N[C@@H](C)C(=O)N[C@@H](Cc1c[nH]c2ccccc12)C(=O)N[C@@H](CC(C)C)C(=O)N[C@@H](CC(C)C)C(=O)N[C@@H](CCCCN)C(=O)N[C@@H](CCCCNC(=O)CNC(=O)[C@H](CO)NC(=O)[C@H](CCC(=O)O)NC(=O)CNC(=O)[C@H](CO)NC(=O)CC[C@H](NC(=O)CC[C@H](NC(=O)CCCCCCCCCCCCCCCCC(=O)O)C(=O)O)C(=O)O)C(N)=O` [Example 2, N^ε35-[2-[[(2S)-2-[[(2S)-4-carboxy-2-[[2-[[(2S)-2-[[(4S)-4-carboxy-4-[[(4S)-4-carboxy-4-(17-carboxyheptadecanoylamino)butanoyl]amino]butanoyl]amino]-3-hydroxypropanoyl]amino]acetyl]amino]butanoyl]amino]-3-hydroxypropanoyl]amino]acetyl]-[Imp7,Acb8,His9,Lys18,Glu22,Arg26,Leu33,Lys35]-GLP-1-(7-35)-peptide amide] (I: Desaminohistidyl-[Ac4c]HGTFTSDVSKYLEEQAAREFIAWLLKK-NH2 / II: {C18 diacid-γGlu-γGlu}-SGESG; amide I:28-II:C), the IC50 was found to be 0.1 nM.
